Tested on: 926638-142-R-J1-PDC complex spheroid viability
Experiment: Anticancer human tumor 926638-142-R-J1-PDC patient-derived endometrial carcinoma cell line growth inhibition [POLQ]
Conditions: for IC50: curve of first compound; for viability, T/C: stronger effect = lower value; active = viability on the fitted dose curve at most 10% of control; inactive = the rest
Procedure, shortened: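 Growth inhibition in 3D: complex spheroids (tumor PDC, HUVEC, MSC) treated with POLQ inhibitor combinations; where Cmax unknown, highest tested concentration 10 microM, except SN-38 at 1 microM.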
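Also: spheroids exposed to drugs for one week before readout.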
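For viability, T/C in this document: percent viability relative to DMSO vehicle control wells set as 100%.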

CC(=O)O[C@H]1C(=O)[C@@]2(C)[C@H]([C@H](OC(=O)c3ccccc3)[C@]3(O)C[C@H](OC(=O)[C@H](O)[C@@H](NC(=O)c4ccccc4)c4ccccc4)C(C)=C1C3(C)C)[C@]1(OC(C)=O)CO[C@@H]1C[C@@H]2O + Nc1ccc(C#CCN(C(=O)Cc2ncc(C(F)(F)F)cc2C(F)(F)F)c2ccc(F)cc2)nn1
433 nM: IC50 (second compound 0.0316 µM)
inactive: viability, T/C (second compound 0.0316 µM, first compound 0.00949 µM) 85.1% | viability, T/C (second compound 0.0316 µM, first compound 0.03 µM) 62.4% | viability, T/C (second compound 0.0316 µM, first compound 0.0949 µM) 56.9% | viability, T/C (second compound 0.0316 µM, first compound 0.3 µM) 50.7% | viability, T/C (second compound 0.0316 µM, first compound 0.949 µM) 47.9% | viability, T/C (second compound 0.0316 µM, first compound 3 µM) 48% | viability, T/C (second compound 0.1 µM, first compound 0.00949 µM) 84.3% | viability, T/C (second compound 0.1 µM, first compound 0.03 µM) 76.3% | viability, T/C (second compound 0.1 µM, first compound 0.0949 µM) 58.2% | viability, T/C (second compound 0.1 µM, first compound 0.3 µM) 69.8% | viability, T/C (second compound 0.1 µM, first compound 0.949 µM) 51% | viability, T/C (second compound 0.1 µM, first compound 3 µM) 42.9% | viability, T/C (second compound 0.316 µM, first compound 0.00949 µM) 91.4% | viability, T/C (second compound 0.316 µM, first compound 0.03 µM) 72.3% | viability, T/C (second compound 0.316 µM, first compound 0.0949 µM) 57.5% | viability, T/C (second compound 0.316 µM, first compound 0.3 µM) 47.7% | viability, T/C (second compound 0.316 µM, first compound 0.949 µM) 50.9% | viability, T/C (second compound 0.316 µM, first compound 3 µM) 45.2% | viability, T/C (second compound 1 µM, first compound 0.00949 µM) 79.3% | viability, T/C (second compound 1 µM, first compound 0.03 µM) 71.3% | viability, T/C (second compound 1 µM, first compound 0.0949 µM) 57% | viability, T/C (second compound 1 µM, first compound 0.3 µM) 51.8% | viability, T/C (second compound 1 µM, first compound 0.949 µM) 50.7% | viability, T/C (second compound 1 µM, first compound 3 µM) 50.8% | viability, T/C (second compound 3.16 µM, first compound 0.00949 µM) 82.7% | viability, T/C (second compound 3.16 µM, first compound 0.03 µM) 65% | viability, T/C (second compound 3.16 µM, first compound 0.0949 µM) 53.6% | viability, T/C (second compound 3.16 µM, first compound 0.3 µM) 53.1% | viability, T/C (second compound 3.16 µM, first compound 0.949 µM) 52.8% | viability, T/C (second compound 3.16 µM, first compound 3 µM) 47.3% | viability, T/C (second compound 10 µM, first compound 0.00949 µM) 76.3% | viability, T/C (second compound 10 µM, first compound 0.03 µM) 60.7% | viability, T/C (second compound 10 µM, first compound 0.0949 µM) 50.4% | viability, T/C (second compound 10 µM, first compound 0.3 µM) 49% | viability, T/C (second compound 10 µM, first compound 0.949 µM) 46.9% | viability, T/C (second compound 10 µM, first compound 3 µM) 51.8%
1300 nM: IC50 (second compound 0.1 µM)
139 nM: IC50 (second compound 10 µM)
> 3000 nM: IC50 (second compound 1 µM)
458 nM: IC50 (second compound 0.316 µM)
1940 nM: IC50 (second compound 3.16 µM)

CC[C@@]1(O)C(=O)OCc2c1cc1n(c2=O)Cc2cc3c(CN(C)C)c(O)ccc3nc2-1 + Nc1ccc(C#CCN(C(=O)Cc2ncc(C(F)(F)F)cc2C(F)(F)F)c2ccc(F)cc2)nn1
95.5 nM: IC50 (second compound 3.16 µM)
> 100 nM: IC50 (second compound 0.0316 µM) | IC50 (second compound 0.1 µM) | IC50 (second compound 0.316 µM)
inactive: viability, T/C (second compound 0.0316 µM, first compound 0.000316 µM) 105% | viability, T/C (second compound 0.0316 µM, first compound 0.001 µM) 96.1% | viability, T/C (second compound 0.0316 µM, first compound 0.00316 µM) 84% | viability, T/C (second compound 0.0316 µM, first compound 0.01 µM) 73.4% | viability, T/C (second compound 0.0316 µM, first compound 0.0316 µM) 71.5% | viability, T/C (second compound 0.0316 µM, first compound 0.1 µM) 46.6% | viability, T/C (second compound 0.1 µM, first compound 0.000316 µM) 112% | viability, T/C (second compound 0.1 µM, first compound 0.001 µM) 90% | viability, T/C (second compound 0.1 µM, first compound 0.00316 µM) 81.6% | viability, T/C (second compound 0.1 µM, first compound 0.01 µM) 81.7% | viability, T/C (second compound 0.1 µM, first compound 0.0316 µM) 69.2% | viability, T/C (second compound 0.1 µM, first compound 0.1 µM) 48.3% | viability, T/C (second compound 0.316 µM, first compound 0.000316 µM) 96.8% | viability, T/C (second compound 0.316 µM, first compound 0.001 µM) 109% | viability, T/C (second compound 0.316 µM, first compound 0.00316 µM) 86.2% | viability, T/C (second compound 0.316 µM, first compound 0.01 µM) 66.6% | viability, T/C (second compound 0.316 µM, first compound 0.0316 µM) 64.1% | viability, T/C (second compound 0.316 µM, first compound 0.1 µM) 56.3% | viability, T/C (second compound 1 µM, first compound 0.000316 µM) 100% | viability, T/C (second compound 1 µM, first compound 0.001 µM) 101% | viability, T/C (second compound 1 µM, first compound 0.00316 µM) 89.6% | viability, T/C (second compound 1 µM, first compound 0.01 µM) 88.5% | viability, T/C (second compound 1 µM, first compound 0.0316 µM) 71.2% | viability, T/C (second compound 1 µM, first compound 0.1 µM) 49.4% | viability, T/C (second compound 3.16 µM, first compound 0.000316 µM) 92.4% | viability, T/C (second compound 3.16 µM, first compound 0.001 µM) 92% | viability, T/C (second compound 3.16 µM, first compound 0.00316 µM) 89.7% | viability, T/C (second compound 3.16 µM, first compound 0.01 µM) 78.6% | viability, T/C (second compound 3.16 µM, first compound 0.0316 µM) 74.6% | viability, T/C (second compound 3.16 µM, first compound 0.1 µM) 48.1% | viability, T/C (second compound 10 µM, first compound 0.000316 µM) 91.2% | viability, T/C (second compound 10 µM, first compound 0.001 µM) 88.5% | viability, T/C (second compound 10 µM, first compound 0.00316 µM) 80.2% | viability, T/C (second compound 10 µM, first compound 0.01 µM) 79.6% | viability, T/C (second compound 10 µM, first compound 0.0316 µM) 65% | viability, T/C (second compound 10 µM, first compound 0.1 µM) 43.9%
73.1 nM: IC50 (second compound 10 µM)
97.6 nM: IC50 (second compound 1 µM)

— PubChem BioAssay AID1963826 (Molecular Pharmacology Branch, DTP, NCI, 2024)
